US20240100104A1, “METHODS AND COMPOSITION FOR THE TREATMENT OF AUTISM SPECTRUM DISORDER” (The General Hospital Corporation, priority 2020, published 2024)

How the values were obtained:
patients with ASD = test: Clinical Global Impression-Improvement (CGI-I); assay type: in vivo, human; settings: vs control group; P<0.05 only for combination
Experimental: FIG. 2. Proportion of subjects displaying improvement in CGI-I overtime among all subjects within a treatment condition.
Clinical Global Impression (CGI) was assessed to evaluate ASD symptoms and the relative extent of improvement in symptoms at each visiting time. […] The waterfall data of CGI score reduction in each group is shown in supplement FIG. 6.
This clinical trial is a randomized, double-blind, and placebo-controlled study in accordance with the Consolidated Standards of Reporting Trials (CONSORT) guidelines. Subjects were randomized to two groups with 1:1 ratio into this two-stage study. To achieve a statistical power of 80% for primary outcomes with a large effect size of 0.8 (Cohen's d) assumed, a total of 60 participants (30 in each arm) were required. However, as we are primarily interested in studying the preliminary effects of the proposed treatment, we enrolled and randomized 35 subjects who were included in the data analysis. In stage 1, the probiotics group received oral probiotics PS128 while the placebo group received oral placebo for 16 weeks. In stage 2, both groups continued their respective administration and simultaneously added intranasal oxytocin spray. The treatment proceeded for a total of 28 weeks with 3 visits for outcomes measurement at 0, 16 weeks, and 28 weeks (V1, V2, and V3, respectively). […]

mouse models of ASD = settings: two mouse models of ASD; cited from earlier work
[1] = 32 IU per day, patients age 3-8 years old; cited from earlier work

CC[C@H](C)[C@@H]1NC(=O)[C@H](Cc2ccc(O)cc2)NC(=O)[C@@H](N)CSSC[C@@H](C(=O)N2CCC[C@H]2C(=O)N[C@@H](CC(C)C)C(=O)NCC(N)=O)NC(=O)[C@H](CC(N)=O)NC(=O)[C@H](CCC(N)=O)NC1=O [OXT, Oxytocin]
proportion of subjects showing improvement in CGI-I (CGI-I≤3) (patients with ASD): non-significant, though a trend of improvement
effect on sociability (mouse models of ASD): enhanced sociability
safety of dosage [1]: safe and adequate
